Measurements from PubChem BioAssay AID1918958 (Molecular Pharmacology Branch, DTP, NCI, 2023).
Values joined by “and” are separate entries in the source; they are usually repeats but may differ in a detail not shown here. Equal values may be shown once. Each block holds one compound with its values, some of them ahead of it.

System: NCI-H196 complex spheroid viability
Assay: Anticancer human tumor NCI-H196 cell line growth inhibition [LSD1];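 further: spheroids exposed to agents for 7 days before readout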;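 on viability, T/C: 100% = DMSO vehicle control viability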
Conditions: for viability, T/C: stronger effect = lower value
Outline: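 Drug combinations with the LSD1 inhibitor iadademstat tested on tumor cells co-cultured as spheroids with endothelial cells and mesenchymal stem cells. Concentrations descended in half-log increments from clinical Cmax or 10 microM.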

[1] = curve of first compound, second compound 0.1 µM
[2] = curve of first compound, second compound 0.316 µM
[3] = curve of first compound, second compound 1 µM
[4] = curve of first compound, second compound 3.16 µM
[5] = curve of first compound, second compound 10 µM
[6] = second compound 0.1 µM, first compound 0.000949 µM
[7] = second compound 0.1 µM, first compound 0.003 µM
[8] = second compound 0.1 µM, first compound 0.00949 µM
[9] = second compound 0.1 µM, first compound 0.03 µM
[10] = second compound 0.1 µM, first compound 0.0949 µM
[11] = second compound 0.1 µM, first compound 0.3 µM
[12] = second compound 0.316 µM, first compound 0.000949 µM
[13] = second compound 0.316 µM, first compound 0.003 µM
[14] = second compound 0.316 µM, first compound 0.00949 µM
[15] = second compound 0.316 µM, first compound 0.03 µM
[16] = second compound 0.316 µM, first compound 0.0949 µM
[17] = second compound 0.316 µM, first compound 0.3 µM
[18] = second compound 1 µM, first compound 0.000949 µM
[19] = second compound 1 µM, first compound 0.003 µM
[20] = second compound 1 µM, first compound 0.00949 µM
[21] = second compound 1 µM, first compound 0.03 µM
[22] = second compound 1 µM, first compound 0.0949 µM
[23] = second compound 1 µM, first compound 0.3 µM
[24] = second compound 3.16 µM, first compound 0.000949 µM
[25] = second compound 3.16 µM, first compound 0.003 µM
[26] = second compound 3.16 µM, first compound 0.00949 µM
[27] = second compound 3.16 µM, first compound 0.03 µM
[28] = second compound 3.16 µM, first compound 0.0949 µM
[29] = second compound 3.16 µM, first compound 0.3 µM
[30] = second compound 10 µM, first compound 0.000949 µM
[31] = second compound 10 µM, first compound 0.003 µM
[32] = second compound 10 µM, first compound 0.00949 µM
[33] = second compound 10 µM, first compound 0.03 µM
[34] = second compound 10 µM, first compound 0.0949 µM
[35] = second compound 10 µM, first compound 0.3 µM
[36] = second compound 0.1 µM, first compound 0.949 µM
[37] = second compound 0.1 µM, first compound 3 µM
[38] = second compound 0.316 µM, first compound 0.949 µM
[39] = second compound 0.316 µM, first compound 3 µM
[40] = second compound 1 µM, first compound 0.949 µM
[41] = second compound 1 µM, first compound 3 µM
[42] = second compound 3.16 µM, first compound 0.949 µM
[43] = second compound 3.16 µM, first compound 3 µM
[44] = second compound 10 µM, first compound 0.949 µM
[45] = second compound 10 µM, first compound 3 µM

Compound: Nc1ncn(C2CC(O)C(CO)S2)c(=O)n1 (stereo unspecified) + NC1CCC(NC2CC2c2ccccc2)CC1
- IC50 [1]: > 300 nM
- IC50 [2]: > 300 nM
- IC50 [3]: > 300 nM
- IC50 [4]: > 300 nM
- IC50 [5]: > 300 nM
- viability, T/C [6]: 112%
- viability, T/C [7]: 104%
- viability, T/C [8]: 121%
- viability, T/C [9]: 118%
- viability, T/C [10]: 122%
- viability, T/C [11]: 118%
- viability, T/C [12]: 103%
- viability, T/C [13]: 102%
- viability, T/C [14]: 108%
- viability, T/C [15]: 114%
- viability, T/C [16]: 112%
- viability, T/C [17]: 127%
- viability, T/C [18]: 93.7%
- viability, T/C [19]: 105%
- viability, T/C [20]: 113%
- viability, T/C [21]: 109%
- viability, T/C [22]: 109%
- viability, T/C [23]: 110%
- viability, T/C [24]: 96.4%
- viability, T/C [25]: 106%
- viability, T/C [26]: 105%
- viability, T/C [27]: 124%
- viability, T/C [28]: 107%
- viability, T/C [29]: 108%
- viability, T/C [30]: 108%
- viability, T/C [31]: 105%
- viability, T/C [32]: 113%
- viability, T/C [33]: 118%
- viability, T/C [34]: 111%
- viability, T/C [35]: 106%

- IC50 (curve of compound): 724 nM and 543 nM
Compound: CC1COCCN1c1cc(-c2ccnn2C)c2ccnc(-c3ccn[nH]3)c2n1 (stereo unspecified)
- viability, T/C (compound 0.00316 µM): 77.7% and 75.2%
- viability, T/C (compound 0.01 µM): 77.9% and 70%
- viability, T/C (compound 0.0316 µM): 64.6% and 70%
- viability, T/C (compound 0.1 µM): 65.4% and 57.1%
- viability, T/C (compound 0.316 µM): 55.8% and 53.1%
- viability, T/C (compound 1 µM): 47.5% and 46.9%

- IC50 (curve of compound): 155 nM and 119 nM
Compound: O=C(C=Cc1cccc(S(=O)(=O)Nc2ccccc2)c1)NO
- viability, T/C (compound 0.00949 µM): 107% and 99.7%
- viability, T/C (compound 0.03 µM): 103% and 104%
- viability, T/C (compound 0.0949 µM): 70.1% and 56.7%
- viability, T/C (compound 0.3 µM): 22.9% and 15%
- viability, T/C (compound 0.949 µM): 0.4%
- viability, T/C (compound 3 µM): 0.41% and 0.39%

- IC50 (curve of compound): > 3000 nM
Compound: CCN(c1cc(-c2ccc(CN3CCOCC3)cc2)cc(C(=O)NCc2c(C)cc(C)[nH]c2=O)c1C)C1CCOCC1
- viability, T/C (compound 0.00949 µM): 95.5% and 97.5%
- viability, T/C (compound 0.03 µM): 103% and 95.3%
- viability, T/C (compound 0.0949 µM): 92.9% and 110%
- viability, T/C (compound 0.3 µM): 93.9% and 107%
- viability, T/C (compound 0.949 µM): 101% and 113%
- viability, T/C (compound 3 µM): 108% and 100%

Compound: Nc1ccccc1NC(=O)c1ccc(CNC(=O)OCc2cccnc2)cc1 + NC1CC1c1ccc(-c2cccc(O)c2)cc1
- IC50 [1]: 57.8 nM
- IC50 [2]: 63 nM
- IC50 [3]: 63.6 nM
- IC50 [4]: 67.7 nM
- IC50 [5]: 104 nM
- viability, T/C [8]: 77.6%
- viability, T/C [9]: 66.3%
- viability, T/C [10]: 37.7%
- viability, T/C [11]: 5.54%
- viability, T/C [36]: 0.32%
- viability, T/C [37]: 0.4%
- viability, T/C [14]: 78.8%
- viability, T/C [15]: 65.5%
- viability, T/C [16]: 42%
- viability, T/C [17]: 7.37%
- viability, T/C [38]: 0.32%
- viability, T/C [39]: 0.32%
- viability, T/C [20]: 80.2%
- viability, T/C [21]: 63.9%
- viability, T/C [22]: 43.9%
- viability, T/C [23]: 8.12%
- viability, T/C [40]: 1.9%
- viability, T/C [41]: 0.59%
- viability, T/C [26]: 79.5%
- viability, T/C [27]: 70.1%
- viability, T/C [28]: 41.9%
- viability, T/C [29]: 7.06%
- viability, T/C [42]: 0.28%
- viability, T/C [43]: 0.39%
- viability, T/C [32]: 82.2%
- viability, T/C [33]: 70.6%
- viability, T/C [34]: 55%
- viability, T/C [35]: 10.2%
- viability, T/C [44]: 0.92%
- viability, T/C [45]: 0.55%

Compound: Nc1ncn(C2CC(O)C(CO)S2)c(=O)n1 (stereo unspecified) + NC1CC1c1ccc(-c2cccc(O)c2)cc1
- IC50 [1]: > 300 nM
- IC50 [2]: > 300 nM
- IC50 [3]: > 300 nM
- IC50 [4]: > 300 nM
- IC50 [5]: > 300 nM
- viability, T/C [6]: 98.2%
- viability, T/C [7]: 105%
- viability, T/C [8]: 108%
- viability, T/C [9]: 101%
- viability, T/C [10]: 108%
- viability, T/C [11]: 102%
- viability, T/C [12]: 107%
- viability, T/C [13]: 111%
- viability, T/C [14]: 112%
- viability, T/C [15]: 113%
- viability, T/C [16]: 112%
- viability, T/C [17]: 113%
- viability, T/C [18]: 103%
- viability, T/C [19]: 110%
- viability, T/C [20]: 113%
- viability, T/C [21]: 109%
- viability, T/C [22]: 134%
- viability, T/C [23]: 116%
- viability, T/C [24]: 101%
- viability, T/C [25]: 102%
- viability, T/C [26]: 106%
- viability, T/C [27]: 99.3%
- viability, T/C [28]: 117%
- viability, T/C [29]: 119%
- viability, T/C [30]: 101%
- viability, T/C [31]: 109%
- viability, T/C [32]: 103%
- viability, T/C [33]: 102%
- viability, T/C [34]: 103%
- viability, T/C [35]: 99.5%

Compound: NS(=O)(=O)OCC1CC(n2ccc3c(NC4CCc5ccccc54)ncnc32)CC1O (stereo unspecified) + NC1CCC(NC2CC2c2ccccc2)CC1
- IC50 [1]: > 3000 nM
- IC50 [2]: > 3000 nM
- IC50 [3]: > 3000 nM
- IC50 [4]: > 3000 nM
- IC50 [5]: > 3000 nM
- viability, T/C [8]: 109%
- viability, T/C [9]: 103%
- viability, T/C [10]: 79.6%
- viability, T/C [11]: 89.3%
- viability, T/C [36]: 84.7%
- viability, T/C [37]: 71.4%
- viability, T/C [14]: 108%
- viability, T/C [15]: 104%
- viability, T/C [16]: 79.2%
- viability, T/C [17]: 78%
- viability, T/C [38]: 78.6%
- viability, T/C [39]: 72.7%
- viability, T/C [20]: 103%
- viability, T/C [21]: 101%
- viability, T/C [22]: 76.2%
- viability, T/C [23]: 81.8%
- viability, T/C [40]: 82.7%
- viability, T/C [41]: 77.6%
- viability, T/C [26]: 92.5%
- viability, T/C [27]: 109%
- viability, T/C [28]: 77.7%
- viability, T/C [29]: 80.5%
- viability, T/C [42]: 76.9%
- viability, T/C [43]: 71.6%
- viability, T/C [32]: 102%
- viability, T/C [33]: 95.4%
- viability, T/C [34]: 73.6%
- viability, T/C [35]: 83.6%
- viability, T/C [44]: 78.3%
- viability, T/C [45]: 64.7%
